# Assay: in vitro
# Conditions: human, hela cells, % viability
row,Structure (SMILES),"viability at 28.5 h, 10 µM"
1,O=C(Cn1cc(C(=O)NC2(c3ccccc3)CCCC2)ccc1=O)NC1CCCCC1 [CBK285986],82.6%
2,COc1c(C)cccc1C(=O)N1CCCC(c2ccc(Nc3nc(C)cc(C)n3)cn2)C1 (stereo not shown) [CBK285989],98.5%
3,O=C(CC1Oc2ccccc2NC1=O)Nc1ccc2c(c1)CN(Cc1ccccc1)C2 (stereo not shown) [CBK285991],88%
4,COc1ccc(C(NC(=O)CC2CCN(c3nc(C)cc(C)n3)CC2)C2CC2)cc1 (stereo not shown) [CBK285994],93.4%
5,Cc1cc(C)nc(N2CCC(CC(=O)NCCOc3cccc(F)c3)CC2)n1 [CBK285996],112%
6,COc1ccccc1-c1ccccc1CN(C)Cc1ccccc1N1CCOCC1 [CBK286000],88.7%
7,O=C(CC1CCN(C(=O)Cc2ccccc2)CC1)Nc1nc2c(s1)CCCCC2 [CBK286001],90.3%
8,Cc1cc(CCCC(=O)N2CCCC(c3ccc(Nc4ncccn4)cn3)C2)ccc1F (stereo not shown) [CBK286003],78.6%
9,O=C(Nc1nc2c(s1)CCCCC2)C1CN(S(=O)(=O)c2ccc(F)cc2)C1 [CBK286005],95%
10,O=C(Nc1ccc(F)cc1)c1ccc(=O)n(CC(=O)N2CCC3(CCCCC3)C2)c1 [CBK286006],94.9%
11,Cc1cc(C)nc(Nc2ccc(C3CCCN(C(=O)C(C)(C)c4cccc(F)c4)C3)nc2)n1 (stereo not shown) [CBK286007],85.2%
12,Cc1ccc(C2CCCN2C(=O)c2cccn(CC(=O)NC3CCCCC3)c2=O)cc1C (stereo not shown) [CBK286009],92.2%
13,COc1cc(C)c(C)cc1S(=O)(=O)N1[C@@H](c2ccccc2F)C[C@@H]2NC(=O)CCC[C@H]21 [CBK286012],112%
14,CNC(=O)c1ccc(-c2ccc(CNC(=O)C(C)Oc3ccc(C)c(C)c3)cc2)nc1C (stereo not shown) [CBK286014],104%
15,CNC(=O)c1ccc(-c2ccc(CNC(=O)CCc3cccc(Cl)c3)cc2)nc1C [CBK286015],86.9%
16,Cc1nc(-c2ccc(CNC(=O)C(Cc3ccccc3)N3CCCC3)cc2)ccc1C(N)=O (stereo not shown) [CBK286017],92.6%
17,CC(C)(CNC(=O)c1ccc(=O)n(CC(=O)N2CCc3ccccc32)c1)c1ccccc1F [CBK286020],127%
18,O=C(Cn1cc(C(=O)NC2(c3ccccc3)CCCC2)ccc1=O)NCc1ccc(F)cc1 [CBK286027],84.4%
19,COc1cccc(CC(=O)N2[C@H](Cc3ccccc3)C[C@@H]3NCCCCC[C@H]32)c1 [CBK286030],105%
20,Cc1[nH]c2ccccc2c1C(=O)N1CCC(CC(=O)N2CCN(c3ccccc3)CC2)CC1 [CBK286033],96.6%
21,Cc1ccc2c(c1)cc(C(=O)N1CCOC(C(=O)N3CCc4ccccc4C3)C1)n2C (stereo not shown) [CBK286035],93.8%
22,Cc1cc(C(=O)N2CCCC(c3ccc(Cc4ccc(Cl)cc4)cn3)C2)nc(N(C)C)n1 (stereo not shown) [CBK286036],116%
23,CC(=O)N1CCCC1C(=O)N1CC(C(=O)Nc2nc3c(C)cc(C)cc3s2)C1 (stereo not shown) [CBK286039],86%
24,O=C(Cn1cc(C(=O)NCC2(c3ccccc3)CCCC2)ccc1=O)NC1CCCC1 [CBK286040],104%
25,CC(C)c1ncc(CN2CCC(CC(=O)N3CCN(c4ccccc4)CC3)CC2)cn1 [CBK286048],101%
26,CC(C)c1ccc(C(C)NC(=O)Cn2cc(C(=O)Nc3ccc(F)cc3)ccc2=O)cc1 (stereo not shown) [CBK286049],97.6%
27,CC1CCc2nc(NC(=O)Cn3cc(C(=O)Nc4ccc(F)cc4)ccc3=O)sc2C1 (stereo not shown) [CBK286053],100%

row,Structure (SMILES),"viability at 28.5 h, 10 µM"
1,O=C(Cn1cccc(C(=O)NC2CCCCC2)c1=O)NCC1(c2ccccc2Cl)CC1 [CBK286054],94.6%
2,O=C(Cn1cccc(C(=O)Nc2ccc(F)cc2)c1=O)NC1(c2ccccc2)CCCC1 [CBK286057],96.3%
3,O=C(Cn1cccc(C(=O)NC2CCCCC2)c1=O)NC1(c2ccccc2)CCCC1 [CBK286059],85.1%
4,CC1CCc2nc(NC(=O)Cn3cccc(C(=O)NC4CCCCC4)c3=O)sc2C1 (stereo not shown) [CBK286064],101%
5,CC(C)(CNC(=O)Cn1cccc(C(=O)Nc2ccc(F)cc2)c1=O)c1ccccc1F [CBK286067],97.4%
6,CC(C)(CNC(=O)Cn1cccc(C(=O)NC2CCCCC2)c1=O)c1cccc(F)c1 [CBK286069],86.9%
7,O=C(NCC1(c2ccccc2Cl)CC1)c1ccc(=O)n(CC(=O)N2CCCCC2)c1 [CBK286077],84.8%
8,O=C(Cn1cc(C(=O)Nc2ccc(F)cc2)ccc1=O)Nc1nc2c(s1)CCCCC2 [CBK286080],99.3%
9,O=C(NCC1(c2ccccc2)CCCC1)c1ccc(=O)n(CC(=O)N2CCCCC2)c1 [CBK286082],93.5%
10,O=C(Nc1cc(F)ccc1N1CCCC1)c1ccc(=O)n(CC(=O)N2CCCCC2)c1 [CBK286083],97.7%
11,CNC(=O)c1sc2ccccc2c1C1CN(Cc2cn(C)c3cc(OC)ccc23)CCO1 (stereo not shown) [CBK286087],91.9%
12,Cc1ccc(C2CCCN2C(=O)c2ccc(=O)n(CC(=O)Nc3ccc(F)cc3)c2)cc1C (stereo not shown) [CBK286088],107%
13,O=C(CN1CCC(c2cccc(Cc3cccc(F)c3)n2)CC1)Nc1nccs1 [CBK286090],91.8%
14,Cc1noc(C)c1CC(=O)N1[C@H]2CCCCCN(C)[C@@]2(C)C[C@H]1c1ccccc1 [CBK286094],85.8%
15,CC(C)c1ccc(C(C)NC(=O)Cn2cc(C(=O)NC3CCCCC3)ccc2=O)cc1 (stereo not shown) [CBK286097],100%
16,CCCn1cnc2cc(NC(=O)Cn3cc(C(=O)NC4CCCCC4)ccc3=O)ccc21 [CBK286098],96.6%
17,O=C(Cn1cc(C(=O)NC2CCCCC2)ccc1=O)NCC1(c2ccccc2Cl)CC1 [CBK286101],86.4%
18,COc1ccccc1-c1ccc(CN(C)Cc2ccccc2N2CCOCC2)cc1 [CBK286108],90.6%
19,CN(C(=O)Cn1cccc(C(=O)NCC(C)(C)c2ccc(F)cc2)c1=O)C1CCCCC1 [CBK286112],108%
20,Cc1nn(C)cc1S(=O)(=O)N1CCC(c2cccc(Cc3ccccc3Cl)n2)CC1 [CBK286115],95.3%
21,CCn1ncc(S(=O)(=O)N2CCC(c3cccc(Cc4ccccc4C)n3)CC2)c1C [CBK286116],91%
22,COc1ccc(CN2CCCc3c(C)nc(C4CCCN(C(=O)C5CCC5)C4)nc32)cc1 (stereo not shown) [CBK286117],95.1%
23,Cc1cc(N2CCC(c3cc(CCOc4ccc(Cl)cc4)[nH]n3)C2)nc(C)n1 (stereo not shown) [CBK286119],98.1%
24,Cc1ccc(Nc2nccc(C3CCCN(Cc4ccc5[nH]ccc5c4)C3)n2)nc1 (stereo not shown) [CBK286122],88%
25,COC(C)(C)C(=O)N1CCCC(c2ccc(Cc3cccc(C(F)(F)F)c3)cn2)C1 (stereo not shown) [CBK286124],107%
26,CC(=O)Nc1ccc(C(=O)N2CCCC(c3cccc(Cc4ccccc4Cl)n3)C2)cc1 (stereo not shown) [CBK286126],109%
27,CC(=O)Nc1cccc(-c2nccnc2C2CCCN(CCc3ccccc3)C2)c1 (stereo not shown) [CBK286128],110%

row,Structure (SMILES),"viability at 28.5 h, 10 µM"
1,CC(C)c1ccc(OCCc2cc(C3CCN(C(=O)CC4CCCC4)C3)n[nH]2)cc1 (stereo not shown) [CBK286129],102%
2,Cc1ccc(C2(O)CCN(C(=O)CC3CCN(C(=O)CC4CCCCC4)CC3)C2)cc1 (stereo not shown) [CBK286132],96.9%
3,COc1ccc(CN2CCCC(c3nccnc3-c3cccc(NC(C)=O)c3)C2)cc1 (stereo not shown) [CBK286135],104%
4,O=S(=O)(c1ccc(F)cc1)N1CCCC(c2nccnc2-c2ccc(F)cc2)C1 (stereo not shown) [CBK286136],117%
5,COc1cccc(-c2nccnc2C2CCCN(S(=O)(=O)c3ccc(F)cc3)C2)c1 (stereo not shown) [CBK286138],108%
6,Cc1ccccc1Cc1cccc(C2CCN(S(=O)(=O)c3cn(C)nc3C)CC2)n1 [CBK286141],86.7%
7,O=C(c1ccc(F)cc1)N1CCCC(c2nccnc2-c2cccc(C(F)(F)F)c2)C1 (stereo not shown) [CBK286142],98.3%
8,COc1ccccc1-c1cccc(C2CCCN(C(=O)Cc3c[nH]c4ccccc34)C2)n1 (stereo not shown) [CBK286143],100%
9,CC(=O)Nc1ccc(C(=O)N2CCCC2c2cccc(Cc3ccc(Cl)cc3)n2)cc1 (stereo not shown) [CBK286144],110%
10,Cc1ncsc1C(=O)N1CCC(c2cccc(Cc3ccccc3Cl)n2)CC1 [CBK286146],99.2%
11,Cc1ccccc1-c1cncc(C2CCN(C(=O)Cc3c[nH]c4ccccc34)CC2)n1 [CBK286148],79.4%
12,COc1cccc(-c2cncc(C3CCCN(Cc4ccc5[nH]ccc5c4)C3)n2)c1 (stereo not shown) [CBK286151],84.7%
13,Cc1ccc2cc(CNc3ccc(-c4nc5cc(C)ccc5[nH]4)cc3)c(O)nc2c1 [CBK286156],70.8%
14,COc1ccc2cc(CNc3ccc(Oc4ccccc4)cc3)c(=O)[nH]c2c1 [CBK286158],83.7%
15,COc1ccc2cc(CNc3ccc(CCc4nc5ccccc5n4C)cc3)c(=O)[nH]c2c1 [CBK286159],103%
16,COc1ccc2[nH]c(=O)c(CNc3ccc(CCc4nc5ccccc5n4C)cc3)cc2c1 [CBK286162],87.9%
17,c1ccc(CN2CCC(NCc3ccco3)C(c3ccccc3)C2)cc1 (stereo not shown) [CBK286167],95.4%
18,O=C(CN1C2CCC1CC(O)(c1ccco1)C2)N1c2ccccc2CCc2ccccc21 (stereo not shown) [CBK286168],94%
19,O=C(c1nc2ccccc2s1)C1CCN(C(=O)CCc2ccc(-c3ccccc3)o2)CC1 [CBK286170],86.8%
20,CC[C@H](Cn1ncc2ccccc2c1=O)NC(=O)c1ccc2c(c1)Sc1ccccc1O2 [CBK286173],81.3%
21,O=C(c1ccc(-c2ccc(F)cc2)o1)N1CCC(n2c(=O)oc3ccccc32)CC1 [CBK286175],104%
22,COc1ccc(N2CCN(c3c(C)c(C)nc4cc(-c5nccn5C)nn34)CC2)cc1 [CBK286178],85.1%
23,COc1ccc(C(=O)Cn2nc3nnc(-c4ccccc4)c(-c4ccccc4)n3c2=O)cc1 [CBK286181],83.4%
24,COc1ccccc1N1CCN(c2c(C)c(C)nc3cc(-c4nccn4C)nn23)CC1 [CBK286182],87.5%
25,O=C(Cc1ccc(-c2ccccc2)cc1)N1CCC2(CC1)Nc1ccccc1S(=O)(=O)N2 [CBK286189],79.2%
